Patent publication US6770673B1, “Therapeutic uses of arglabin in combination with other chemotherapy agents” (priority 1997, dated 2004)
Marks after values point to notes of the source that are not given here.

Columns and labels:
Sarcoma-45 = experiment: Inhibition of tumor growth in implanted tumors; format: in vivo, rats
[1] = tested on: Alveolar Cancer of the liver; experiment: Inhibition of tumor growth in implanted tumors; format: in vivo, mice and rats; conditions: dose 50 mg/kg
immune system [2] = experiment: Immune system modulation in intact mice; format: in vivo
Description: In intact mice, injection of 10 mg/kg increased the total number of leukocytes through an increase in the absolute number of lymphocytes. […] The nitroblue tetrazolium assay was used to assess the function of the neutrophils. […] With a higher dosage, 20 mg/kg, a decrease in nitroblue tetrazolium positive neutrophils was seen, indicating a decrease in function.
The level of the T-suppressor subpopulation was not altered. At a higher dosage (20 mg/kg), overall leukocyte number was not altered, even though B-lymphocyte number decreased and T-lymphocyte decreased to a lesser extent. Natural killer cell number was increased.
The increase in T-lymphocytes was accompanied by an increase in the level of the T-helper subpopulation of T-lymphocytes.

PC-1 = experiment: Inhibition of tumor growth in implanted tumors; format: in vivo, mice and rats; conditions: dose 30 mg/kg
P-815 cells [3] = experiment: Proliferation of transformed cells, 3H-thymidine incorporation; format: cell-based, mouse; conditions: 3H-thymidine 18 hours, FIG. 6
Description: (§1) Mouse mastocytoma (P-815), myeloma (Z-P3x63Ag8.653 and Pai) and human erthyroleukemia (K-562) cell lines were used. Primary cultures of normal mouse hepatocytes were isolated from mouse liver using collagenase. Mouse splenocytes were isolated using a glass homogenizer. Marrow cells were obtained by washing the bone marrow. See, for example, Shears, S. B. and Kirk, C. J. (1984), Biochem. J. 219:375-382.
(§2) Cells were cultured in RPMI-1640 medium supplemented with 10% fetal calf serum, 100 mM L-glutamine and 50 μg/ml gentamycin at 37° C. under 5% CO2. Cells were seeded into 24-well plates at a density of 50,000 cells/well and grown until near confluency, approximately 2 days, then transferred to 96-well plates at the same density. […] Viability of the cells was determined by trypan blue exclusion. […] Approximately 25% of K-562 and X-653 cells survived at a concentration of 12 μg/ml, and the same proportion of P-815 cells survived at a concentration of about 25 μg/ml.
(§3) The proliferation of the transformed cells was assessed by incubating ^3H-labeled thymidine in the media for 18 hours. At the end of the specified time period, the proliferation was measured by counting the amount of ^3H-thymidine incorporated. Thymidine incorporation provides a quantitative measure of the rate of DNA synthesis, which is typically directly proportional to the rate of cell division.

X-653 cells = experiment: as above; format: cell-based, mouse; conditions: 3H-thymidine 18 hours, FIG. 6
Description: as §1, §2, §3

cancer = experiment: Case records of selected patients, monochemotherapy; format: in vivo, human
Source text: The following are abstracts from the case records of selected patients, who received dimethylaminoarglabin hydrochloride monochemotherapy.

[4] = tested on: Sarcoma-45 resistant to 5-fluorouracil; experiment: Inhibition of growth of resistant tumour strains; format: in vivo, rats; conditions: dose 50 mg/kg
K-562 cells = experiment: Viability of transformed cells, trypan blue exclusion; format: cell-based, human; conditions: 12 μg/ml, 18 hours
Description: as §1, §2

splenocytes = experiment: Viability of primary cultures of normal cells, trypan blue exclusion; format: cell-based, mouse; conditions: 18 hours
Description: as §1, §2
(§4) Viability was measured by trypan blue exclusion. […] At a concentration of 320 μg/ml, the number of viable splenocytes was reduced by 50% in comparison to the control. At concentrations of 640 μg/ml and 1280 μg/ml, 40% and 10%, respectively, of the splenocytes were still viable. At these same concentrations, approximately 50% and 25% of hepatocytes were still viable. Marrow cells were more sensitive to dimethylaminoarglabin hydrochloride. At a concentration of 160 μg/ml, only about 50% of the marrow cells were still viable. Increasing the concentration to 320 μg/ml reduced the viability to about 25%.

marrow cells = experiment: as above; format: cell-based, mouse; conditions: 18 hours
Description: as §1, §2, §4

hepatocytes = experiment: as above; format: cell-based, mouse; conditions: 18 hours
Description: as §1, §2, §4

[5] = Toxicity and maximum tolerable doses of arglabin and derivatives; format: in vivo, rats, guinea pigs, mice, rabbits; conditions: 2% aqueous solution, blood serum and hepatic tissue
Source text: Overall, the compounds in this family have low toxicity and are tolerated at dosages exceeding the therapeutic dosage.
Blood pressure was maintained.

Leucemia P-388 = experiment: Implanted leukemia, inhibition / survival; format: in vivo, mice and rats
immune system [6] = experiment: Immunological indices in August rats with Pliss lymphosarcoma; format: in vivo; conditions: Increased; about 50 mg/kg IP daily for 10 days
Source text: Additional immunological data were obtained from an “August” line of rats, weighing 140-160 g, with and without Pliss lymphosarcoma. […] Results are summarized in Table V. Overall, lyophilized-dimethylaminoarglabin hydrochloride stimulated delayed type hypersensitivity, but reduced all other studied indices in intact rats. In rats with Pliss Lymphosarcoma, the immune system was stimulated, as all studied indices increased.

Pliss lymphosarcoma = experiment: Inhibition of tumor growth in implanted tumors; format: in vivo, rats; conditions: dose 30 mg/kg
P-815 cells [7] = experiment: Viability of transformed cells, trypan blue exclusion; format: cell-based, mouse; conditions: about 25 μg/ml, 18 hours
Description: as §1, §2

L-1210 = experiment: Implanted leukemia, survival; format: in vivo, mice and rats; conditions: dose 30 mg/kg
Solubility in water = format: physicochemical

SMILES: CC1=CCC23OC2(C)CCC2C(CN(C)C)C(=O)OC2C13.Cl (centres unmarked) [Dimethylaminoarglabin hydrochloride]
- Inhibition of Tumour Growth, % - Sarcoma-45 (Sarcoma-45; dose 30 mg/kg): 86.5*** %
- Inhibition of Tumour Growth, % - Sarcoma-45 (Sarcoma-45; dose 50 mg/kg): 83.1** %
- Inhibition of Tumour Growth, % - Alveolar Cancer of the liver [1]: 80.0%
- total number of leukocytes (immune system [2]; 10 mg/kg): increased
- B-lymphocytes (immune system [2]; 10 mg/kg daily IP for 10 days): remained stable
- overall leukocyte count (immune system [2]; 10 mg/kg daily IP for 10 days): increased
- leukocyte number (immune system [2]; 20 mg/kg): did not result in an overall increase
- nitroblue tetrazolium positive neutrophils (immune system [2]; 20 mg/kg): decrease
- natural killer cell number (immune system [2]; 20 mg/kg daily IP for 10 days): increased
- Inhibition of Tumour Growth, % - PC-1 (PC-1): 84.3* %
- average time of retention (rat, in vivo): about 67 hours
- brain tissue concentration (rat, in vivo): 23.9 µg/g
- concentration in the liver (rat, in vivo): 228.6 µg/g
- maximum lung concentration (rat, in vivo): 149.4 µg/g
- maximum spleen concentration (rat, in vivo): 159 µg/g
- penetration through the blood-brain barrier (rat, in vivo): able to penetrate through the blood-brain barrier
- total clearance (rat, in vivo): 0.5 mL/min
- maximal level in the blood serum (rat, in vivo, iv, 2 mg/kg): 30 µg/mL
- time of maximal level in the blood serum (rat, in vivo, iv, 2 mg/kg): within one hour
- volume of distribution (rat, in vivo, iv, 2 mg/kg): large
- kidney concentration (rats, 24 hours): 56.6 µg/g
- concentration in skeletal muscle (rats, within three hours after administration): 176.4 µg/g
- concentration at which proliferation was effectively blocked (P-815 cells [3]): 12 µg/mL
- concentration at which proliferation was effectively blocked (X-653 cells): 6 µg/mL
- condition of patient with brain tumor (cancer; Patient A, case number 543, after the first course): condition was stabilized
- infiltration of the right breast decreased (cancer; Patient M, case number 305, breast cancer, 5 courses): 50%
- outcome of liver cancer (cancer; patient, case number N2225, embryonal carcinoma of the liver, 120 mg IV daily): complete recovery
- Inhibition of Tumour Strains Growth, % - Resistant Forms - Sarcoma-45 to 5-fluorouracil [4]: 62.3%
- cells survived (K-562 cells): Approximately 25%
- number of viable splenocytes reduced in comparison to the control (splenocytes; 320 μg/ml): 50%
- splenocytes still viable (splenocytes; 640 μg/ml): 40%
- splenocytes still viable (splenocytes; 1280 μg/ml): 10%
- marrow cells still viable (marrow cells; 160 μg/ml): approximately 50%
- marrow cells viability (marrow cells; 320 μg/ml): about 25%
- hepatocytes still viable (hepatocytes; 640 μg/ml): approximately 50%
- hepatocytes still viable (hepatocytes; 1280 μg/ml): about 25%
- findings after prolonged daily intraperitoneal administration [5]: Reversible changes in glycolysis and tissue respiration
- Leucemia P-388 PALT - increase in survival (Leucemia P-388; dose 30 mg/kg): +144%
- Leucemia P-388 PALT - increase in survival (Leucemia P-388; dose 50 mg/kg): +109.0%
- Delayed type hypersensitivity, Rats with Pliss Lymphosarcoma After Treatment (immune system [6]): 89.9-132.2%
- Hemagglutination (RHG), Rats with Pliss Lymphosarcoma After Treatment (immune system [6]): 82.2-142.6%
- Nitroblue tetrazolium (NBT), Rats with Pliss Lymphosarcoma After Treatment (immune system [6]): 79.2-175.4%
- Spontaneous-erythrocyte rosette forming (E-ROK), Rats with Pliss Lymphosarcoma After Treatment (immune system [6]): 94.8-162.5%
- Inhibition of Tumour Growth, % - Pliss lymphosarcoma (Pliss lymphosarcoma): 79.6%
- cells survived (P-815 cells [7]): Approximately 25%
- L-1210 - increase in survival (L-1210): +60%
- solubility in water (Solubility in water): soluble in water
